Values after ≈ are worked out from the molar mass of the structure shown.
Legend:
Polar surface area = conditions: pH 7.4
[1] = Solubility of the compound
[2] = Dissociation constant, pKa; conditions: pH 7.4
A549 = assay: Antiproliferative activity against human A549 cells; type: functional, cell-based
Caco-2 [3] = assay: Antiproliferative activity against human Caco-2 cells; type: functional, cell-based
[4] = Ratio of solubility for drug to taspine; type: physicochemical
ECV-304 [5] = assay: Antiproliferative activity against human ECV304 cells; type: functional, cell-based
ECV-304 [6] = assay: Ratio of IC50 drug to IC50 taspine against human ECV304 cells; type: functional
Caco-2 [7] = assay: Ratio of IC50 drug to IC50 taspine against human Caco-2 cells; type: functional

PSA (Polar surface area) | solubility [1] | pKa [2] | IC50 (A549) | Structure (SMILES) | IC50 (Caco-2 [3]) | Ratio [4] | IC50 (ECV-304 [5]) | Ratio IC50 (ECV-304 [6]) | Ratio IC50 (Caco-2 [7])
103 Å2 | 0.061 mg/mL (≈ 121 µM) | 3.65 | 0.18 µM | COC(=O)c1cc(OC(=O)c2ccc(OC)c(O)c2)c(OC)cc1CCNc1ccc(F)c(Cl)c1 | – | – | 0.061 µM | – | –
94.5 Å2 | 0.13 mg/mL (≈ 322 µM) | 8.57 | 0.111 µM | COC(=O)c1ccc(OC)c(OC(=O)c2cc(O)c(OC)cc2CCN(C)C)c1 | 3.1 µM | – | – | – | –
104 Å2 | 0.27 mg/mL (≈ 606 µM) | 7.28 | 0.158 µM | COC(=O)c1cc(OC(=O)c2ccc(OC)c(O)c2)c(OC)cc1CCN1CCOCC1 | 0.0525 µM | 13 | 0.00267 µM | 10 | 3

More lines, now with the values behind:

Structure (SMILES) | PSA (Polar surface area) | solubility [1] | pKa [2] | IC50 (A549) | IC50 (Caco-2 [3]) | Ratio [4] | IC50 (ECV-304 [5]) | Ratio IC50 (ECV-304 [6]) | Ratio IC50 (Caco-2 [7])
COC(=O)c1cc(OC(=O)c2ccc(OC)c(O)c2)c(OC)cc1CCN(C)C | 94.5 Å2 | 0.14 mg/mL (≈ 347 µM) | 8.75 | 0.453 µM | 11 µM | 13 | – | – | –
COc1ccc2c(=O)oc3c(OC)cc(CCN(C)C)c4c(=O)oc1c2c34 [TASPINE] | 74.3 Å2 | 0.021 mg/mL (≈ 56.9 µM) | 8.21 | 0.00418 µM | 0.153 µM | – | 0.0223 µM | – | –

Reference: ChEMBL document CHEMBL1153246, “Discovery of novel taspine derivatives as antiangiogenic agents” (Bioorg Med Chem Lett, 2010)
